In ChEMBL document CHEMBL3745664, “Synthesis, biological evaluation and QSAR studies of diarylpentanoid analogues as potential nitric oxideinhibitors” (Medchemcomm, 2015):

What was measured:
[1] = tested on: RAW264.7; assay: Antiinflammatory activity in mouse RAW264.7 cells assessed as inhibition of LPS/IFN-gamma-stimulated nitric oxide production at 50 uM after 17 hrs by Griess assay; assay type: functional; settings: RAW264.7, 17 h
[2] = tested on: RAW264.7; assay: Cytotoxicity against mouse RAW264.7 cells by MTT assay; assay type: cell-based
[3] = tested on: RAW264.7; assay: Antiinflammatory activity in mouse RAW264.7 cells assessed as inhibition of LPS/IFN-gamma-stimulated nitric oxide production after 17 hrs by Griess assay; assay type: functional, cell-based; settings: RAW264.7, 17 h
[4] = Chemical stability of the compound in phosphate buffer at 20 uM at pH 7 at 25 degC by UV-visible spectrophotometric analysis; assay type: physicochemical; settings: pH 7, 20 µM
[5] = Chemical stability of the compound in phosphate buffer at 20 uM at pH 12.7 at 25 degC by UV-visible spectrophotometric analysis; assay type: physicochemical; settings: pH 12.7, 20 µM
[6] = Chemical stability of the compound in phosphate buffer at 20 uM at pH 2.4 at 25 degC by UV-visible spectrophotometric analysis; assay type: physicochemical; settings: pH 2.4, 20 µM

| IC50 ([3]; read-out: IC50) | IC50 ([3]; read-out: pIC50 (converted)) | Stability [4] | Stability [5] | Stability [6] | Structure (SMILES) | inhibition at 50 µM [1] | IC50 [2] |
| --- | --- | --- | --- | --- | --- | --- | --- |
| 44.6 µM | 44.6 µM |  |  |  | O=C(/C=C/C=C/c1ccccc1)c1ccccc1 | 66.8% | 44.3 µM |
|  |  |  |  |  | O=C(/C=C/C=C/c1ccccc1)c1cc(Cl)ccc1O | < 10% |  |
|  |  |  |  |  | COc1ccc(/C=C/C=C/C(=O)c2cc(Cl)ccc2O)cc1 | 26.4% |  |
|  |  |  |  |  | O=C(/C=C/C=C/c1ccc(Cl)cc1)c1cc(Cl)ccc1O | < 10% |  |
|  |  |  |  |  | O=C(/C=C/C=C/c1ccccc1)c1ccccc1O | < 10% |  |
|  |  |  |  |  | O=C(/C=C/C=C/c1ccccc1)c1ccc(F)cc1 | 33.1% |  |
| 57.4 µM | 57.4 µM |  |  |  | COc1ccc(/C=C/C=C/C(=O)c2ccc[nH]2)cc1 | 95.8% | > 100 µM |
| 47.9 µM | 47.9 µM |  |  |  | COc1ccc(/C=C/C=C/C(=O)c2cccs2)cc1 | 69.6% | 68.5 µM |
| 39.3 µM | 39.3 µM |  |  |  | COc1cc(/C=C/C=C/C(=O)c2ccc(F)cc2)cc(OC)c1O | 76.7% | 5 µM |
| 26.1 µM | 26.1 µM |  |  |  | O=C(/C=C/C=C/c1ccccc1)c1cccc(O)c1 | 104% | 48.7 µM |
| 21.8 µM | 21.8 µM |  |  |  | COc1ccc(/C=C/C=C/C(=O)c2ccc(O)cc2F)cc1 | 102% | 60.3 µM |
| 71.2 µM | 71.1 µM |  |  |  | COc1ccc(C(=O)/C=C/C=C/c2ccccc2)cc1 | 51.1% | > 100 µM |
| 42 µM | 42 µM |  |  |  | COc1cc(/C=C/C=C/C(=O)c2ccccc2)cc(OC)c1O | 64.1% | 28.7 µM |
| 16.3 µM | 16.3 µM |  |  |  | COc1ccc(/C=C/C=C/C(=O)c2ccc(OC)c(O)c2)cc1 | 100% | 28.4 µM |
| 63.8 µM | 63.8 µM |  |  |  | CN(C)c1ccc(/C=C/C=C/C(=O)c2ccc(F)cc2)cc1 | 71.5% | > 100 µM |
|  |  |  |  |  | COc1ccc(/C=C/C=C/C(=O)c2ccc(OC)cc2)cc1 | 41.6% |  |
|  |  |  |  |  | O=C(/C=C/C=C/c1ccccc1)c1cc(Cl)cc(Cl)c1O | 19.6% |  |
| 14.8 µM | 14.8 µM |  |  |  | O=C(/C=C/C=C/c1ccc(O)cc1)c1ccc(F)cc1 | 110% | 45.5 µM |
| 77.4 µM | 77.4 µM |  |  |  | COc1ccc(C(=O)/C=C/C=C/c2ccc(N(C)C)cc2)cc1 | 54.5% | > 100 µM |
|  |  |  |  |  | CN(C)c1ccc(/C=C/C=C/C(=O)c2cccs2)cc1 | 32.4% |  |
| 27.1 µM | 27.1 µM |  |  |  | COc1ccc(C(=O)/C=C/C=C/c2ccc(O)cc2)c(O)c1 | 93.4% | > 100 µM |
|  |  |  |  |  | COc1ccc(/C=C/C=C/C(=O)c2ccc(OC)cc2OC)cc1 | < 10% |  |
| 23.5 µM | 23.4 µM |  |  |  | COc1ccc(/C=C/C=C/C(=O)c2ccc(O)c(Cl)c2)cc1 | 98.2% | 67.6 µM |

| IC50 ([3]; read-out: IC50) | IC50 ([3]; read-out: pIC50 (converted)) | Stability [4] | Stability [5] | Stability [6] | Structure (SMILES) | inhibition at 50 µM [1] | IC50 [2] |
| --- | --- | --- | --- | --- | --- | --- | --- |
| 16.4 µM | 16.4 µM |  |  |  | O=C(/C=C/C=C/c1ccc(O)cc1)c1ccc(O)cc1 | 102% | > 100 µM |
| 39.8 µM | 45.7 µM |  |  |  | COc1ccc(/C=C/C=C/C(=O)c2cc(C)oc2C)cc1 | 59.7% | > 100 µM |
| 68.6 µM | 68.5 µM |  |  |  | Cc1ccc(C(=O)/C=C/C=C/c2ccccc2)s1 | 52.6% | > 100 µM |
| 59 µM | 58.9 µM |  |  |  | Cc1cc(C(=O)/C=C/C=C/c2ccccc2)c(C)o1 | 84.6% | > 100 µM |
|  |  |  |  |  | O=C(/C=C/C=C/c1ccccc1)c1cc(Br)ccc1O | < 10% |  |
|  |  |  |  |  | COc1ccc(/C=C/C=C/C(=O)c2ccc(F)cc2)cc1 | 40% |  |
|  |  |  |  |  | O=C(/C=C/C=C/c1ccc(Cl)cc1)c1ccc(Cl)cc1 | 31.2% |  |
| 45.8 µM | 45.8 µM |  |  |  | COc1ccc(/C=C/C=C/C(=O)c2ccccc2)cc1 | 77.4% | > 100 µM |
| 70.5 µM | 70.5 µM |  |  |  | COc1ccc(C(=O)/C=C/C=C/c2ccc(Cl)cc2)cc1 | 45.4% | 80.2 µM |
| 27.5 µM | 27.5 µM |  |  |  | COc1ccc(/C=C/C=C/C(=O)c2ccco2)cc1 | 61.5% | 76.6 µM |
| 21.5 µM | 21.4 µM |  |  |  | COc1ccc(/C=C/C=C/C(=O)c2cc(OC)c(O)c(OC)c2)cc1 | 89.4% | 58.6 µM |
| 116 µM |  |  |  |  | CN(C)c1ccc(/C=C/C=C/C(=O)c2ccco2)cc1 | 56.9% | > 100 µM |
|  |  |  |  |  | COc1ccc(/C=C/C=C/C(=O)c2ccc(C)s2)cc1 | 41.7% |  |
|  |  |  |  |  | COc1ccc(/C=C/C=C/C(=O)c2cc(C)sc2C)cc1 | 44.8% |  |
|  |  |  |  |  | Cc1ccc(/C=C/C=C/C(=O)c2ccccc2)cc1 | 73.7% |  |
| 73.6 µM | 73.5 µM |  |  |  | CN(C)c1ccc(/C=C/C=C/C(=O)c2ccccc2)cc1 | 51.2% | > 100 µM |
| 27.2 µM | 27.2 µM |  |  |  | O=C(/C=C/C=C/c1ccc(O)cc1)c1ccc(O)cc1O | 82.1% | > 100 µM |
|  |  |  |  |  | COc1ccc(/C=C/C=C/C(=O)c2cc(Cl)cc(Cl)c2O)cc1 | < 10% |  |
|  |  |  |  |  | CN(C)c1ccc(/C=C/C=C/C(=O)c2ccccc2O)cc1 | 16.4% |  |
| 10.2 µM | 10.2 µM | Stable | Stable | Stable | Cc1ccc(C(=O)/C=C/C=C/c2ccc(O)cc2)s1 | 103% | 28.3 µM |
|  |  |  |  |  | COc1ccc(/C=C/C=C/C(=O)c2ccc(C)cc2)cc1 | 42.2% |  |
|  |  |  |  |  | O=C(/C=C/C=C/c1ccccc1)c1ccc(Cl)cc1 | < 10% |  |
|  |  | Unstable | Stable | Stable | COc1cc(/C=C/C(=O)CC(=O)/C=C/c2ccc(O)c(OC)c2)ccc1O [CURCUMIN] | 99.3% | > 100 µM |
